Patent US7083918B2, “Bacterial small-molecule three-hybrid system” (The Trustees of Columbia University in the City of New York, priority 2002, dated 2006)

Experiments:
[1] = system: tolC^− strains; experiment: growth and viability of tolC- strains on antibiotic; type: cell-based, E. coli
Protocol: Electrocompetent cells of strain V674E were made by standard methods (35); however, the transformation efficiency of this strain is low (10^6–10^7) due to the tolC^− mutation. Using standard methods, both the pACλcI32 and the pBRαLN plasmids or appropriate derivatives were transformed into the strain. Transformants were grown on LB with 100 μg/mL ampicillin and 6 μg/mL chloramphenicol. […] In addition MacConkey plates can't be used because MacConkey media is toxic to strains bearing a tolC^− mutation.

[2] = system: E. coli cells; experiment: toxicity to E. coli cells in three-hybrid experiments; type: cell-based; conditions: at the low concentrations of Mtx-SLF required for the three-hybrid experiments; tolC^− strain
Protocol: The next step was the construction of the E. coli strain expressing the λcI-FKBP12 and (NTD-DHFR fusion proteins and containing the lacZ reporter construct. Plasmids encoding the λcI-FKBP12 and αNTD-DHFR chimeras were prepared from vectors pACλcI32 and pBRαLN using standard molecular biology techniques (8). The same synthetic lacZ reporter, placOR2-62, as initially reported by the Hochschild lab was used. The reporter placOR2-62 is maintained in one copy in the chromosome as a prophage and encodes the lacZ gene 62 bp downstream from the λcI operator (FIG. 1) (16). Based on previous results from Kopytek and Hu showing that tolC^− and thyA^− mutations improved the viability and tolerance of E. coli to Mtx-based molecules, we expected export as well as toxicity of Mtx-SLF to be problematic in E. coli (32). Thus, we modified the original Hochschild strain KS1 to be tolC^− in order to decrease active export of our small molecule. […] We introduced the tolC^− mutation into KS1 via a P1vir transduction from strain SK037 (32). We call this test strain V674E. Transformation of the plasmids bearing the various λcI and αNTD fusion proteins into V674E yielded the final experimental strains.
These X-gal plate results were confirmed using more quantitative liquid β-galactosidase assays. The liquid assays were carried out essentially as originally described by Miller (35). […]

[3] = system: λcI-FKBP12 and αNTD-DHFR fusion proteins (lacZ reporter gene in E. coli strain V674E); experiment: liquid lacZ (ONPG) β-galactosidase assay, bacterial three-hybrid system; type: cell-based; conditions: for effect of unlinked ligand on the levels of transcription in the three-hybrid system: control without Mtx-SLF (FIG. 4)
Excerpt: The levels of small-molecule induced transcriptional activation were quantified using liquid lacZ assays. The strains here correspond exactly to those in FIG. 2 and are used in liquid ONPG assays where the levels of transcriptional activation can be quantitated based on the amount of reporter protein, b-galactosidase, which is produced. The strains are V674E bearing plasmids encoding λcI and αNTD fusion proteins: 1, λcI-Gal4, αNTD-Gal11^P; 2, λcI, αNTD; 3, λcI-FKBP12, αNTD; 4, λcI-FKBP12, αNTD-DHFR; 5, λcI, αNTD-DHFR. The strains were assayed in triplicate from three transformants and standard deviations are shown. The strains are grown in LB with 0.5 mM IPTG, 100 μg/mL ampicillin, 6 μg/mL chloramphenicol, and small molecules at the indicated concentration. […] The last two small-molecule concentrations are competition assays in which an excess of one of the ligands for the receptor proteins was used to compete out the positive signal due to the three-hybrid system.
The strains are V674E expressing the following λcI and αNTD fusion proteins: (♦), λcI-Gal4, αNTD-Gal11^P (a direct protein-protein interaction); (▬), λcI-FKBP12, αNTD (a negative control); and (▴), λcI-FKBP12, αNTD-DHFR (the three-hybrid system). […] The standard deviation for each data point is also shown.
For the liquid assays, the strains were incubated overnight in LB liquid media containing 100 μg/mL ampicillin, 6 μg/mL chloramphenicol, and 0.5 mM IPTG overnight. These cultures were used to innoculate 1000 fold into LB liquid media containing 100 μg/mL ampicillin, 6 μg/mL chloramphenicol, 0.5 mM IPTG, and small molecule (per concentration indicated in each experiment) and grown to a final OD600 of 0.4-0.6 in a 37° C. shaker which took about 5 hours. No tPEG is used in the liquid assays in order to get a true quantization of the transcription. Then, the protocol from Miller was followed exactly using 0.1 mL cell lysate for the assay (35).

[4] = target: FKBP12 (Homo sapiens, UniProt P62942); conditions: cited from earlier work
Sequence of FKBP12 (P62942 whole entry): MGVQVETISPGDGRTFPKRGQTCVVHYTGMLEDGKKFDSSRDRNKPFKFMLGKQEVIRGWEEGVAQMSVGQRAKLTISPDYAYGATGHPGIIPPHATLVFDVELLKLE

O=C(N[C@H](CO)[C@H](O)c1ccc([N+](=O)[O-])cc1)C(Cl)Cl [Chloramphenicol]
levels that significantly impair growth and viability of tolC^− strains [1]: above 8 μg/mL

CN(Cc1cnc2nc(N)nc(N)c2n1)c1ccc(C(=O)N[C@@H](CCC(=O)O)C(=O)O)cc1 [Mtx, methotrexate]
toxicity in E. coli (need for thyA^− mutation) [2]: not sufficiently toxic | effect of unlinked ligand on the levels of transcription in the three-hybrid system [3]: Neither Mtx, SLF, nor a combination of the two affects the levels of transcription

CCC(C)(C)C(=O)C(=O)N1CCCCC1C(=O)OC(CCc1ccc(OC)c(OC)c1)c1cccc(OCC(=O)O)c1 (stereo not drawn) [SLF]
effect of unlinked ligand on the levels of transcription in the three-hybrid system [3]: Neither Mtx, SLF, nor a combination of the two affects the levels of transcription | affinity for FKBP12 [4]: nanomolar affinity

CCC(C)(C)C(=O)C(=O)N1CCCCC1C(=O)OC(CCc1ccc(OC)c(OC)c1)c1cccc(OCC(=O)OC(C)(C)C)c1 (stereo not drawn) [tert-butyl ester of SLF]
levels of transcription with competitor relative to 1 μM Mtx-SLF alone ([3]; competition: 1 μM Mtx-SLF plus 10-fold excess of competitor): about half
